Assay results taken from patent US4965250A, “Peptide compounds having a nitrogenous polycyclic structure” (Adir ET CIE, priority 1987, dated 1990).

Test system: polynuclear leukocytes present in the whole blood of dogs
Type: cell-based
Description: The compounds according to the invention were tested for their capacity to increase non-specific phagocytosis. This test consists in measuring, after treatment by flow cytometry, the capacity of the polynuclear leukocytes present in the whole blood of dogs to phagocytose latex beads 1.8 μm in diameter, on the one hand in the absence (control) and on the other hand in the presence of a compound of the invention.

C[C@H]1OC(=O)N[C@@H]1C(=O)N[C@@H](CCCCN)C(=O)N1C2CCC(CC2)[C@H]1C(=O)N[C@@H](CCCNC(=N)N)C(=O)O [Example 1, Cyclo(S)Thr-(S)Lys-(S)ABO-(S)Arg-OH]
increase relative to the control of the capacity of the polynuclear leukocytes for non-specific phagocytosis: 19%
